From patent US4066768A, “Derivatives of 1-phenoxy-3-amino-propan-2-ol” (Cassella Farbwerke Mainkur Aktiengesellschaft, priority 1973, dated 1978)

What was measured:
[1] = molecular target: T1, β1-receptors of the heart (Canis lupus familiaris, UniProt P79148); test: Inhibition of isoproterenol-induced increase in rate of pressure rise (Dp/dt max.) in left ventricle of anaesthetised dogs (β1-receptor inhibition); format: in vivo, mongrel dogs; conditions: for ED50: dog, iv, read-out: β1-receptor inhibition ED 50; for Quotient: ED 50 of β2-receptor inhibition / ED 50 of β1-receptor inhibition / Relative quotient, on basis of reference substance = 1 / Relative β1-receptor inhibition (reference substance = 100): dogs; for Quotient: ED 50 of β2-receptor inhibition / ED 50 of β1-receptor inhibition: cardioselectivity, higher = better; for Relative quotient, on basis of reference substance = 1: relative cardioselectivity factor; for Relative β1-receptor inhibition (reference substance = 100): relative ED 50, lower = more active
T1 construct: from tissue; host or cells: heart (left ventricle) of anaesthetised mongrel dogs, in vivo
T1 sequence (P79148 whole entry): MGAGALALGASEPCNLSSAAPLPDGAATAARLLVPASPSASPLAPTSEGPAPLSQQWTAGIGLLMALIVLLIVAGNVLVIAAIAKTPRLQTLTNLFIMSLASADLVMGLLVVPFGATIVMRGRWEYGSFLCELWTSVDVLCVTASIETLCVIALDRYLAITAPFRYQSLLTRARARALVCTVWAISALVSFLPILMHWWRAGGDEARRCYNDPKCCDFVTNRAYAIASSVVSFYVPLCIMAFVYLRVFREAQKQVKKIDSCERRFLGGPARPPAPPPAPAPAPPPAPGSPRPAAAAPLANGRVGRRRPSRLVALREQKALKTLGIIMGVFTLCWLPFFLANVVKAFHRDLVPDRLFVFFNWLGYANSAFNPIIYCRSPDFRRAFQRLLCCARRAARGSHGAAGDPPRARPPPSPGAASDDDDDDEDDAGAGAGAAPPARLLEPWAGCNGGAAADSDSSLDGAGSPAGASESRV
Experimental: (§1) The blocking action of the compounds according to the invention on the β1-receptors of the heart and on the β2-receptors of the cardiovascular system was investigated as follows: the blood pressure in the left-hand ventricle was measured on mongrel dogs of both sexes under an anaesthesia by Chloralose-urethane-morphine and the pressure signal was continuously differentiated by means of an analogue computer (BRUSH Instruments, Cleveland/Ohio) and, inter alia, the rate of pressure increase (Dp/dt) was recorded. In addition, the perfusion of a femoral artery was measured by means of an electromagnetic flow-meter (Model […] of Messrs. Statham) and the perfusion was recorded in ml/minute. […] DUNLOP and […]: Selective blockade of adrenoceptive beta-receptors in the heart. Brit. J. Pharmac. Chemother. (1968) 32, 201-218). […] The higher this quotient is, the better the cardioselective action.

[2] = molecular target: T2, β2-receptors of the cardiovascular system (Canis lupus familiaris, UniProt P54833); test: Inhibition of isoproterenol-induced alteration of peripheral (femoral artery) perfusion in anaesthetised dogs (β2-receptor inhibition); format: in vivo, mongrel dogs; conditions: for ED50: dog, iv, read-out: β2-receptor inhibition ED 50; for Relative β2-receptor inhibition (reference substance = 100): relative ED 50, dogs
T2 construct: from tissue; host or cells: femoral artery vascular bed of anaesthetised mongrel dogs, in vivo
T2 sequence (P54833 whole entry, the tested form may be a part): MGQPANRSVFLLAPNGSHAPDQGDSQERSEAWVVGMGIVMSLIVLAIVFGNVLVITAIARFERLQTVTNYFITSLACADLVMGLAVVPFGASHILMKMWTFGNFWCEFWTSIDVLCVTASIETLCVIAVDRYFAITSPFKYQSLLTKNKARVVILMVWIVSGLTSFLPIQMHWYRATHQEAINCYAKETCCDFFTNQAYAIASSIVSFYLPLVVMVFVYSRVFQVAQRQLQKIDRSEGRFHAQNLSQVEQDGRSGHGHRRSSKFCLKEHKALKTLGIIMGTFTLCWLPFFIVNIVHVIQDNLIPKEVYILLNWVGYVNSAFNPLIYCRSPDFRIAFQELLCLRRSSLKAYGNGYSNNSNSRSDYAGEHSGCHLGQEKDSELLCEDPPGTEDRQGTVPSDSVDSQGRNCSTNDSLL
Experimental: as §1

cardiac β1-receptors = test: Inhibition of isoproterenol-induced increase in heart rate in anaesthetized guinea pigs (β1-receptor inhibition); format: in vivo; conditions: for β1-receptor inhibition, parameter: heart rate response to isoproterenol: ED-50: i.v., guinea pigs anaesthetized with urethane, isoproterenol 0.5 gamma/animal
Experimental: The isoproterenol-induced increase in heart rate in anaesthetized animals represents mainly the response of the cardiac β1-receptors. The dose of the antagonists (mg/kg i.v.) which inhibits this response of isoproterenol (0.5 gamma/animal) in guinea pigs, anaesthetized with urethane, by 50% : ED-50 was determined.

tracheal β2-receptors = molecular target: T3, tracheal β2-receptors (Cavia porcellus, UniProt Q8K4Z4); test: Inhibition of isoproterenol-induced relaxation of contracted isolated tracheal chain (β2-receptor inhibition); parameters: species or system guinea pigs
T3 construct: isolated tracheal chain of guinea pigs; from tissue; host or cells: isolated guinea pig tracheal chain
T3 sequence (Q8K4Z4 whole entry): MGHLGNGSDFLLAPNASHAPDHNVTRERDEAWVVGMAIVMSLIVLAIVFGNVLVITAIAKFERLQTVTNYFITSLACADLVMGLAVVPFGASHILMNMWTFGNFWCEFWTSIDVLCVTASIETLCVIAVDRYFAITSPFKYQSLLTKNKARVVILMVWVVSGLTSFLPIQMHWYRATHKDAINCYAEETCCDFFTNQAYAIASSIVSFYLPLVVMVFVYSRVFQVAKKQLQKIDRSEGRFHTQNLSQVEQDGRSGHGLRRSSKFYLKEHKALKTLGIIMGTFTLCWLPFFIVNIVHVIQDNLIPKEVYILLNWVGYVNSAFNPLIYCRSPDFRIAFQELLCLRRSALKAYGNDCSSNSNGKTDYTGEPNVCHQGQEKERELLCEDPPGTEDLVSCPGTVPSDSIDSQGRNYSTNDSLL
Experimental: The isoproterenol-induced relaxation of contracted isolated tracheal chain of guinea pigs represents the response of the tracheal β2-receptors. The bath concentrations of the antagonists which reduce the isoproterenol effects by 50% were determined: ED-50 : g/ml bath.

## Cc1ccc(C(O)CC(C)NCC(O)COc2ccc(OCCO)cc2)cn1 (centres unmarked) [1-(-p-[2-Hydroxy-ethoxy]-henoxy)-3-(1-[2-methyl-pyridyl-5]-1-hydroxy-butyl(3)-amino)-propan-2-ol]
[1]
  ED50: 0.073 mg/kg
  Quotient: ED 50 of β2-receptor inhibition / ED 50 of β1-receptor inhibition: 112
  Relative quotient, on basis of reference substance = 1: 1
  Relative β1-receptor inhibition (reference substance = 100): 30.7
[2]
  ED50: 8.14 mg/kg
  Relative β2-receptor inhibition (reference substance = 100): 30.7

## C=CCNC(=O)Nc1ccc(OCC(O)CNC(C)CC(O)c2cnc(C)nc2C)cc1 (centres unmarked) [1-(p-Allylureido-phenoxy)-3-(1-[2,4-dimethyl-pyrimidyl-5]-1-hydroxy-butyl(3)-amino)-propan-2-ol]
[1]
  ED50: 0.019 mg/kg
  Relative β1-receptor inhibition (reference substance = 100): 7.9

## Cc1ncc(C(O)CC(C)NCC(O)COc2ccc(NC(=O)NC3CCCCC3)cc2)c(C)n1 (centres unmarked) [1-(p-Cyclohexylureido-phenoxy)-3-(1-[2,4-dimethyl-pyrimidyl-5] -1-hydroxy-butyl(3)-amino)-propan-2-ol]
[1]
  ED50: 0.011 mg/kg
  Quotient: ED 50 of β2-receptor inhibition / ED 50 of β1-receptor inhibition: 128
  Relative quotient, on basis of reference substance = 1: 1.1
  Relative β1-receptor inhibition (reference substance = 100): 4.6
[2]
  ED50: 1.38 mg/kg
  Relative β2-receptor inhibition (reference substance = 100): 5.2

## Cc1ccc(C(O)CC(C)NCC(O)COc2ccc(NC(=O)NC3CCCCC3)cc2)cn1 (centres unmarked) [1-(p-Cyclohexylureido-phenoxy)-3-(1-[2-methyl-pyridyl-5]-1-hydroxy-butyl(3)-amino)-propan-2-ol]
[1]
  ED50: 0.006 mg/kg
  Quotient: ED 50 of β2-receptor inhibition / ED 50 of β1-receptor inhibition: 245
  Relative quotient, on basis of reference substance = 1: 2.4
  Relative β1-receptor inhibition (reference substance = 100): 2.5
[2]
  ED50: 1.57 mg/kg
  Relative β2-receptor inhibition (reference substance = 100): 5.9

## CC(CC(O)c1cccnc1)NCC(O)COc1ccc(NC(=O)NC2CCCCC2)cc1 (centres unmarked) [1-(p-Cyclohexylureidophenoxy)-3-(1-hydroxy-1-pyridyl-(3)-butyl3-amino)-propan-2-ol]
[1]
  ED50: 0.003 mg/kg
  Quotient: ED 50 of β2-receptor inhibition / ED 50 of β1-receptor inhibition: 409
  Relative quotient, on basis of reference substance = 1: 2.9
  Relative β1-receptor inhibition (reference substance = 100): 1.3
[2]
  ED50: 1.02 mg/kg
  Relative β2-receptor inhibition (reference substance = 100): 3.8

## CCOCCOc1ccc(OCC(O)CNC(C)CC(O)c2cccnc2)cc1 (centres unmarked) [1-(p-Ethoxyethoxy-phenoxy)-3-(1-[pyridyl-3]-1-hydroxy-butyl(3)-amino)-propan-2-ol]
[1]
  ED50: 0.009 mg/kg
  Quotient: ED 50 of β2-receptor inhibition / ED 50 of β1-receptor inhibition: 296
  Relative quotient, on basis of reference substance = 1: 2.7
  Relative β1-receptor inhibition (reference substance = 100): 3.8
[2]
  ED50: 2.76 mg/kg
  Relative β2-receptor inhibition (reference substance = 100): 10.1

## CCOCc1ccc(OCC(O)CNC(C)CC(O)c2cnc(C)nc2C)cc1 (centres unmarked) [1-(p-Ethoxymethylene-phenoxy)-3-(1-[2,4-dimethyl-pyrimidyl-5]-1-hydroxy-butyl(3)-amino)-propan-2-ol]
[1]
  ED50: 0.019 mg/kg
  Quotient: ED 50 of β2-receptor inhibition / ED 50 of β1-receptor inhibition: 144
  Relative quotient, on basis of reference substance = 1: 1.4
  Relative β1-receptor inhibition (reference substance = 100): 7.9
[2]
  ED50: 2.88 mg/kg
  Relative β2-receptor inhibition (reference substance = 100): 10.7

## CCOCc1ccc(OCC(O)CNC(C)CC(O)c2cccnc2)cc1 (centres unmarked) [1-(p-Ethoxymethylene-phenoxy)-3-(1-[pyridyl-3]-1-hydroxy-butyl(3)-amino)-propan-2-ol]
[1]
  ED50: 0.01 mg/kg
  Relative β1-receptor inhibition (reference substance = 100): 4.2

## CCNC(=O)Nc1ccc(OCC(O)CNC(C)CC(O)c2cnc(C)nc2C)cc1 (centres unmarked) [1-(p-Ethylureido-phenoxy)-3-(1-[2,4-dimethyl-pyrimidyl-5-]-1-hydroxy-butyl(3)-amino)-propan-2-ol]
[1]
  ED50: 0.093 mg/kg
  Quotient: ED 50 of β2-receptor inhibition / ED 50 of β1-receptor inhibition: 137
  Relative quotient, on basis of reference substance = 1: 1.2
  Relative β1-receptor inhibition (reference substance = 100): 39.1
[2]
  ED50: 12.8 mg/kg
  Relative β2-receptor inhibition (reference substance = 100): 48.3

## CCNC(=O)Nc1ccc(OCC(O)CNC(C)CC(O)c2cccnc2)cc1 (centres unmarked) [1-(p-Ethylureido-phenoxy)-3-(1-[pyridyl-3]-1-hydroxy-butyl(3)-amino)-propan-2-ol]
[1]
  ED50: 0.013 mg/kg
  Relative β1-receptor inhibition (reference substance = 100): 5.5

## Cc1ncc(C(O)CC(C)NCC(O)COc2ccc(NC(=O)NC(C)C)cc2)c(C)n1 (centres unmarked) [1-(p-Isopropylureido- -phenoxy)-3-(1-[2,4-dimethyl-pyrimidyl-5]-1-hydroxy-butyl(3)-amino)-propan-2-ol]
[1]
  ED50: 0.022 mg/kg
  Quotient: ED 50 of β2-receptor inhibition / ED 50 of β1-receptor inhibition: 124
  Relative quotient, on basis of reference substance = 1: 1.1
  Relative β1-receptor inhibition (reference substance = 100): 9.2
[2]
  ED50: 2.71 mg/kg
  Relative β2-receptor inhibition (reference substance = 100): 10.2

## COCCCCOc1ccc(OCC(O)CNC(C)CC(O)c2cnc(C)nc2C)cc1 (centres unmarked) [1-(p-Methoxybutoxy-phenoxy)-3-(1-[2,4-dimethyl-pyrimidyl-5]-hydroxy-butyl(3)-amino)-propan-2-ol]
[1]
  ED50: 0.089 mg/kg
  Quotient: ED 50 of β2-receptor inhibition / ED 50 of β1-receptor inhibition: 176
  Relative quotient, on basis of reference substance = 1: 1.6
  Relative β1-receptor inhibition (reference substance = 100): 37.4
[2]
  ED50: 16 mg/kg
  Relative β2-receptor inhibition (reference substance = 100): 58.8

## CCCOCCOc1ccc(OCC(O)CNC(C)CC(O)c2ccc(C)nc2)cc1 (centres unmarked) [1-(p-[2-n-propoxy-ethoxy]-phenoxy)-3-(1-[2-methyl-pyridyl-5]-1-hydroxy-butyl(3)-amino)-propan-2-ol]
[1]
  ED50: 0.035 mg/kg
  Quotient: ED 50 of β2-receptor inhibition / ED 50 of β1-receptor inhibition: 146
  Relative quotient, on basis of reference substance = 1: 1.3
  Relative β1-receptor inhibition (reference substance = 100): 14.7
[2]
  ED50: 5.1 mg/kg
  Relative β2-receptor inhibition (reference substance = 100): 19.2
Cardiac β1-receptors; heart rate, guinea pigs
  Relative β1-receptor inhibition (reference substance = 100): 3.39
Cardiac β1-receptors
  β1-receptor inhibition, parameter: heart rate response to isoproterenol: ED-50: 0.177 mg/kg
Tracheal β2-receptors; bath concentration reducing isoproterenol effects by 50%, guinea pig trachea, read-out: β2-receptor inhibition, parameter: isolated tracheal chain: ED-50 (converted)
  IC50: 6.94 µM
Tracheal β2-receptors; isolated tracheal chain, guinea pigs
  Relative β2-receptor inhibition (reference substance = 100): 7.7

## CC(=O)Nc1ccc(OCC(O)CNC(C)C)cc1 (centres unmarked) [4-(2-Hydroxy-3-isopropylamino-propoxy)-acetanilide, reference compound]
Cardiac β1-receptors
  β1-receptor inhibition, parameter: heart rate response to isoproterenol: ED-50: 5.3 mg/kg
